From patent US6663881B2 (priority 1993, dated 2003)

How the values were obtained:
[1] = system: Vascular smooth muscle cells
[2] = system: Vascular smooth muscle (BO54) cells; type: cell-based, baboon
[3] = system: Vascular smooth muscle (BO54) cells; type: cell-based, baboon; remark: listed apart in the source
[4] = system: balloon traumatized left carotid artery; assay: Periadventitial delivery of taxol crystals in pluronic gel, balloon traumatized rat carotid artery; type: in vivo, rats
Method: To further evaluate the efficacy of crystalline taxol to inhibit neointimal formation in rats, four groups of 5-6 adult male rats underwent balloon trauma of the left carotid artery followed immediately by periadventitial delivery of 1, 0.1, 0.01 or 0 mg of taxol crystals in 500 mg of a pluronic polymer in gel matrix. Fourteen days later, the rats were sacrificed, serum was collected and their carotid arteries were processed for histologic and morphometric analysis.

[5] = system: balloon traumatized left carotid artery; settings: rat, in vivo
[6] = MTT activity in human liver slices after 24 hour exposure; type: cell-based
Method: The cytotoxity of ^3H-cytochalasin B and its subsequent metabolites was also assessed by evaluating dose dependent changes in mitochondrial function by monitoring 3-[4, 5-dimethylthiazol-2yl]-2, 5-diphenyltetrazolium bromide (MTT) activity following a 24 hour exposure of human liver slices to the test agent (Table 10).

[7] = Stability and metabolism in saline, human plasma and human whole blood (HPLC); type: in vitro ADME; settings: 20 hours at 37° C.
Method: To determine the metabolism of ^3H-cytochalasin B in human blood, ^3H-cytochalasin B (8 μg/ml) was dissolved in saline; 1:1 dilution of saline and human plasma; or 1:1 dilution of saline and human whole blood.

[8] = system: balloon traumatized swine femoral arteries; assay: Tissue distribution of crystalline 3H-cytochalasin B after local delivery; set-up: species or system Yorkshire crossbred swine; settings: in vivo
Method: The in vivo tissue distribution of cytochalasin B administered in crystalline form was evaluated in balloon traumatized swine femoral arteries after local delivery. A femoral artery of a Yorkshire crossbred swine was balloon traumatized by overinflation and rotation of a Vascu-Flo™ Silicone embolectomy catheter. Balloon trauma was immediately followed by intravascular delivery of 10 μg/ml ^3H-cytochalasin B crystals (Sigma Chemical Co., St. Louis, Mo.) in saline (saturated) for three minutes under 1 atm of pressure. Blood flow was resumed in the artery for five minutes prior to sacrifice of the animal.

[9] = Human liver slices distribution and metabolism study (HPLC); type: in vitro ADME
Method: ^3H-cytochalasin B at a dose of 1.5 or 8 μg/ml was mixed with viable or non-viable human liver slices and media, and the amount of ^3H-cytochalasin B in media or tissue assessed by HPLC (Tables 8 and 9).

[10] = Biodistribution of 3H-cytochalasin B i.v. (radioactivity); type: in vivo, BALB/c mice
Method: ^3H-cytochalasin B (2 μg; 30 μCi/μg) was injected i.v. into BALB/c mice having urinary bladders that had been externally ligated. Animals were sacrificed at 15 minutes, 30 minutes, 2 hours or 16 hours post-injection. Organs were removed, blotted, weighed, air dried and assayed for radioactivity. Fifty −73% of the total injected dose was accounted for in the tissues sampled (blood, heart, brain, muscle, bone, lung, liver, spleen, stomach, kidney, intestines, and urinary bladder). Clearance of ^3H-cytochalasin B from the blood was extremely rapid with less than 1% of the injected dose in circulation by 15 minutes.

[11] = 1.5 μg/ml, Media/viable tissue, 1 h
[12] = 1.5 μg/ml, Media/viable tissue, 1 h at 37° C.
[13] = 1.5 μg/ml, Media/viable tissue, 4 h
[14] = 8 μg/ml, Media/boiled tissue, 4 h
[15] = 8 μg/ml, Media/boiled tissue, 24 h

Compound: CN[C@@H]1C[C@H]2O[C@@](C)([C@@H]1OC)n1c3ccccc3c3c4c(c5c6ccccc6n2c5c31)C(=O)NC4 [staurosporin]
- cytotoxicity grade at in vitro effective dosage [1]: 2
- minimum effective dose (MED), protein synthesis assay [2]: 100 ng/mL
- minimum effective dose (MED), DNA assay [3]: 1 ng/mL

Compound: Cc1ccc(C(=O)Nc2ccc(S(=O)(=O)O)c3cc(S(=O)(=O)O)cc(S(=O)(=O)O)c23)cc1NC(=O)c1cccc(NC(=O)Nc2cccc(C(=O)Nc3cc(C(=O)Nc4ccc(S(=O)(=O)O)c5cc(S(=O)(=O)O)cc(S(=O)(=O)O)c45)ccc3C)c2)c1 [suramin]
- DNA synthesis inhibition compared with protein synthesis inhibition [3]: to a greater extent than they inhibited protein synthesis

Compound: CC(=O)O[C@H]1C(=O)[C@@]2(C)[C@H]([C@H](OC(=O)c3ccccc3)[C@]3(O)C[C@H](OC(=O)[C@H](O)[C@@H](NC(=O)c4ccccc4)c4ccccc4)C(C)=C1C3(C)C)[C@]1(OC(C)=O)CO[C@@H]1C[C@@H]2O [taxol]
- neointimal area and neointimal/medial ratio vs control ([4]; 0.01 mg): reduction in their neointimal area and neointimal/medial ratio
- toxicity ([4]; 0.01 mg): no
- neointimal area and neointimal/medial ratio vs control ([4]; 0.1 mg): reduction in their neointimal area and neointimal/medial ratio
- toxicity ([4]; 0.1 mg): minimal
- toxicity ([4]; 1.0 mg): limited
- morphometry vs untreated controls [5]: statistically significantly larger luminal areas and no neointimal proliferation
- post-surgical weight gain [5]: delay in post-surgical weight gain

Compound: CC(=O)O[C@@H]1/C=C\[C@@](C)(O)C(=O)[C@@H](C)C/C=C\[C@H]2[C@H](O)C(C)=C(C)[C@H]3C(Cc4ccccc4)NC(=O)[C@]132 (stereo partly shown) [cytochalasin C]
- MED, DNA synthesis assay [3]: 0.01 µg/mL

Compound: ^3H-cytochalasin B
- cytotoxicity of agent or its metabolites [6]: not cytotoxic
- metabolism ([7]; 8 μg/ml in 1:1 saline and human plasma): not metabolized
- metabolism ([7]; 8 μg/ml in 1:1 saline and human whole blood): metabolized by human whole blood
- metabolism ([7]; 8 μg/ml in saline): not metabolized
- tissue localization [8]: localized predominantly to the adventitia
- total reactivity in the tissue [9]: less than 20%
- total reactivity present in the media [9]: greater than 80%
- % Metabolized of Extractable Activity [9, 11]: 43.0%
- % Non extractable Activity [9, 11]: 0.5%
- % Activity in Media [9, 12]: 84%
- % Activity in Tissue [9, 12]: 16%
- % Activity in Media [9, 13]: 84%
- % Activity in Tissue [9, 13]: 16%
- % Metabolized of Extractable Activity [9, 13]: 77.0%
- % Metabolized of Extractable Activity ([9]; 1.5 μg/ml, Media/viable tissue, 24 h): 98.7%
- % Metabolized of Extractable Activity ([9]; 8 μg/ml, Media Only, 1 h): 5%
- % Metabolized of Extractable Activity ([9]; 8 μg/ml, Media Only, 24 h): 5%
- % Non extractable Activity ([9]; 8 μg/ml, Media/boiled tissue, 1 h): 0.5%
- % Extractable Activity [9, 14]: 99.0%
- % Metabolized of Extractable Activity [9, 14]: 5%
- % Non extractable Activity [9, 14]: 1%
- % Activity in Media [9, 15]: 87%
- % Activity in Tissue [9, 15]: 13%
- % Metabolized of Extractable Activity [9, 15]: 5%
- % Non extractable Activity [9, 15]: 1.3%
- % Metabolized of Extractable Activity ([9]; 8 μg/ml, Media/viable tissue, 1 h): 24.2%
- % Metabolized of Extractable Activity ([9]; 8 μg/ml, Media/viable tissue, 4 h): 59.4%
- % Metabolized of Extractable Activity ([9]; 8 μg/ml, Media/viable tissue, 24 h): 98.0%
- injected dose in circulation ([10]; by 15 minutes): less than 1%
- tissues with significant retention of 3H activity ([10]; mouse, in vivo): Only liver, skeletal muscle and intestines showed significant retention

Compound: O=[N+]([O-])OCC(CO[N+](=O)[O-])O[N+](=O)[O-] [nitroglycerin]
- DNA synthesis inhibition compared with protein synthesis inhibition [3]: to a greater extent than they inhibited protein synthesis
